From ChEMBL document CHEMBL4616721, “Nitrogen-Walk Approach to Explore Bioisosteric Replacements in a Series of Potent A2B Adenosine Receptor Antagonists” (J Med Chem, 2020)

Legend:
CYP2D6 [1] = target: T1, CYP2D6 (Homo sapiens, UniProt P10635); assay: Inhibition of CYP2D6 (unknown origin) expressed in insect cell microsomes at 1 uM using dibenzylfluorescein substrate by fluorescence based assay relative to control; assay type: ADME; settings: insect cell microsomes expressing CYP2D6, probe dibenzylfluorescein
[2] = Drug metabolism in human liver microsomes after 60 mins in presence of NADP,glucose-6-phosphate and glucose-6-phosphate dehydrogenase by UPLC-MS/MS analysis; assay type: ADME, Microsome; settings: read-out: Drug metabolism
CYP2D6 [3] = target: T1, CYP2D6; assay: Inhibition of CYP2D6 (unknown origin) expressed in insect cell microsomes at 10 uM using dibenzylfluorescein substrate by fluorescence based assay relative to control; assay type: ADME; settings: insect cell microsomes expressing CYP2D6, probe dibenzylfluorescein
Cytochrome P450 3A4 = Cytochrome P450 3A4 (Homo sapiens, UniProt P08684); assay: Inhibition of CYP3A4 (unknown origin) expressed in insect cell microsomes using dibenzylfluorescein substrate by fluorescence based assay; assay type: ADME
[4] = Solubility in pH 7 PBS incubated for 4 hrs by nephelometry; assay type: physicochemical
Adenosine receptor A1 = target: T2, Adenosine receptor A1 (Homo sapiens, UniProt P30542); assay: Displacement [3H]DPCPX from human adenosine A1 receptor expressed in CHO cell membranes incubated for 60 mins by scintillation counting method
T2 sequence (P30542 whole entry): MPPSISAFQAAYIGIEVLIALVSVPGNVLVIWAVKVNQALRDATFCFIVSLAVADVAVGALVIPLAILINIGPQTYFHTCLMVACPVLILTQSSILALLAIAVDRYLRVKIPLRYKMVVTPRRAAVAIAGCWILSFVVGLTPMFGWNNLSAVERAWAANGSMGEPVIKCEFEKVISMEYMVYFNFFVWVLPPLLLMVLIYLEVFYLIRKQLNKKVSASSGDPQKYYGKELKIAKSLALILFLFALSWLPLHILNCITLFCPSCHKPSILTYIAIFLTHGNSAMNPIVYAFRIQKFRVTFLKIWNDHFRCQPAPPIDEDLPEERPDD

Adenosine receptor A2a = Adenosine receptor A2a (Homo sapiens, UniProt P29274); assay: Displacement [3H]ZM241385 from adenosine A2A receptor in human HeLa cell membranes incubated for 30 mins by scintillation counting method
Adenosine receptor A2b = target: T3, Adenosine receptor A2b (Homo sapiens, UniProt P29275); assay: Displacement [3H]DPCPX from human adenosine A2B receptor expressed in HEK293 cell membranes incubated for 60 mins by scintillation counting method
T3 sequence (P29275 whole entry): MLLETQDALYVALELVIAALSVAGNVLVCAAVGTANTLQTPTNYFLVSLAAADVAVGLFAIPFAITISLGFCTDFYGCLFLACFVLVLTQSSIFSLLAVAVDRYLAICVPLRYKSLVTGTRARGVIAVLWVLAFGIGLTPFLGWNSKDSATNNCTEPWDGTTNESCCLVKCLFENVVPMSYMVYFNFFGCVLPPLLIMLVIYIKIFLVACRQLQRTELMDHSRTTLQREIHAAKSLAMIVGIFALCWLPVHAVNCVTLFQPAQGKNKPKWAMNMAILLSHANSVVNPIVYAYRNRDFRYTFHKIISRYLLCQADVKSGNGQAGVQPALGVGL

Adenosine receptor A3 = target: T4, Adenosine receptor A3 (Homo sapiens, UniProt P0DMS8); assay: Displacement [3H]NECA from adenosine A3 receptor in human HeLa cell membranes incubated for 180 mins by scintillation counting method
T4 sequence (P0DMS8 whole entry): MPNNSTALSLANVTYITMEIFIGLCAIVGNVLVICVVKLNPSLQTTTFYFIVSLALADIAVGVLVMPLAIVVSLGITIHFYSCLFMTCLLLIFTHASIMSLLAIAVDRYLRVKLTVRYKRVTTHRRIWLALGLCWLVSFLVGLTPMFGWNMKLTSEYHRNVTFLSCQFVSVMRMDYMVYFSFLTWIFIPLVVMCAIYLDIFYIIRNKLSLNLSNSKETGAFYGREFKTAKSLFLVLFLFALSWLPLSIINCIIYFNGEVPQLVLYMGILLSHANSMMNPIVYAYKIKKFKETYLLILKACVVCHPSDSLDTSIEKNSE

T1 sequence (P10635 whole entry): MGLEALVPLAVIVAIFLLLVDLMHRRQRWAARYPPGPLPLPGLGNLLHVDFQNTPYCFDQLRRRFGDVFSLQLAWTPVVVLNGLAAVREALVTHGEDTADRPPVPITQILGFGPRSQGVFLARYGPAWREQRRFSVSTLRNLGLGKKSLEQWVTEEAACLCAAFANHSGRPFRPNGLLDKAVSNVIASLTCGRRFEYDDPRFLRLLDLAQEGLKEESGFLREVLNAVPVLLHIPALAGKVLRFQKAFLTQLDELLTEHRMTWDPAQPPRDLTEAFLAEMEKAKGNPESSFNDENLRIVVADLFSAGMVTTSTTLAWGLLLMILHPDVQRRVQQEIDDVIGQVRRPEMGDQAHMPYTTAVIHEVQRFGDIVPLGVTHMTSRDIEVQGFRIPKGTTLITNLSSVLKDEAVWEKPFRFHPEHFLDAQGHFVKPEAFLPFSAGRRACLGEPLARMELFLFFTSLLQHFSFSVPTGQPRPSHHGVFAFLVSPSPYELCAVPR
Sequence of Cytochrome P450 3A4 (P08684 whole entry): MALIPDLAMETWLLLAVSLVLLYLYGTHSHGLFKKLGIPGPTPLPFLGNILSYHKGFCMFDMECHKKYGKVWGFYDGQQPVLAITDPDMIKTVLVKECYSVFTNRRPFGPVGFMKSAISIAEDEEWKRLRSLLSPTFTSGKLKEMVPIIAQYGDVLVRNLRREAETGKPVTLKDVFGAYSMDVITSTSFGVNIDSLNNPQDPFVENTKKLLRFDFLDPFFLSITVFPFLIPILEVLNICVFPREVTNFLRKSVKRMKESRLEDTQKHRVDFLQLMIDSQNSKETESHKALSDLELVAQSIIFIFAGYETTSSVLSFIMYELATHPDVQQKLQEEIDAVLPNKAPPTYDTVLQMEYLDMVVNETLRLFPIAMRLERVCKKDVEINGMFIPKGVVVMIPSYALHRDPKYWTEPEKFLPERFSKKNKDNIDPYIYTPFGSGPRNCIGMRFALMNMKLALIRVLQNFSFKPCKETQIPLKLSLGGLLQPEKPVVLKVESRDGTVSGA
Sequence of Adenosine receptor A2a (P29274 whole entry): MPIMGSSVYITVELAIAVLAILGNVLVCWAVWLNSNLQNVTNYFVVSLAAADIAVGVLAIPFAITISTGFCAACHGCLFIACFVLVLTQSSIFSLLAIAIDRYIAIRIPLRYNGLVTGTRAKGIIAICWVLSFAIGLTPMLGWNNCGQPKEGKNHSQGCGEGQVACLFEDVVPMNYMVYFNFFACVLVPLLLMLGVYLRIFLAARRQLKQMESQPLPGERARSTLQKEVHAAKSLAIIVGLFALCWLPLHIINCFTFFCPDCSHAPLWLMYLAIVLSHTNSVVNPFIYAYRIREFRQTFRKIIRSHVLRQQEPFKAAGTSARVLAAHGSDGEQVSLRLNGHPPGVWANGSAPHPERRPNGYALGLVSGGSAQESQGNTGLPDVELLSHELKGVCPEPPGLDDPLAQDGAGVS

inhibition at 1 µM (CYP2D6 [1]) [%]	metabolised at 1 h [2] [%]	inhibition at 10 µM (CYP2D6 [3]) [%]	IC50 (Cytochrome P450 3A4) [µM]	solubility kinetic at 4 h [4] [µM]	Ki (Adenosine receptor A1) [µM]	Ki (Adenosine receptor A2a) [µM]	Ki (Adenosine receptor A2b) [µM]	Ki (Adenosine receptor A3) [µM]	Structure (SMILES)
13	5.62	19	6.41	> 20	–	–	–	–	CCOC(=O)C1=C(C)Nc2nc3ccccc3n2C1c1cocn1 (racemic)
–	–	–	–	–	0.233	0.282	0.508	0.418	CCOC(=O)C1=C(C)Nc2nc3ccccc3n2C1c1cnco1 (racemic)
